Measured values as given in US20170231929A1, “METHOD FOR ENHANCING IMMUNE CELL FUNCTION AND METHOD FOR ASSESSING IMMUNE CELL MULTIFUNCTIONALITY” (NATIONAL UNIVERSITY CORPORATION OKAYAMA UNIVERSITY, priority 2014, published 2017).

Test system: CD8^+T cells
Assay: Multifunctionality of CD8^+T cells of primary lung cancer patients (stage I) after metformin treatment of PBMC (flow cytometer)
Format: cell-based, human
Conditions: for Decrease, IFNγ 1-cytokine-producing cell / Decrease, IFNγ/IL-2 2-cytokine-producing cell / Decrease, IFNγ/TNFα 2-cytokine-producing cell / Decrease, IFNγ/TNFα/IL2 3-cytokine-producing cell / Increase, IFNγ 1-cytokine-producing cell / Increase, IFNγ/IL-2 2-cytokine-producing cell / Increase, IFNγ/TNFα 2-cytokine-producing cell / Increase, IFNγ/TNFα/IL2 3-cytokine-producing cell / No Change, IFNγ 1-cytokine-producing cell / No Change, IFNγ/IL-2 2-cytokine-producing cell / No Change, IFNγ/TNFα 2-cytokine-producing cell / No Change, IFNγ/TNFα/IL2 3-cytokine-producing cell: Cancer Patients (stage I)
Protocol: 1. Peripheral blood was obtained from a test subject, and PBMC was separated by a density-gradient centrifugation using a lymphocyte-separating reagent Ficoll-Paque® (GE Healthcare). 3 mL of Ficoll-Paque® was dispensed in a 15-mL tube. 8 mL of the peripheral blood was gently placed on the reagent. At this time, care should be taken not to mix Ficoll-Paque® with the peripheral blood. Centrifugation was performed at 400 g for 30 minutes, thereby separating PBMC. 2. The separated PBMC was preserved in a −150° C. freezer or liquid nitrogen using Bambang Car cell preservation liquid by adjusting the cell number to 2.0×10^6 cell/tube. 3. In the test, the thawed PBMC was cultured for 1 to 10 hours in the presence or absence of […]. The culture was performed using a 24-well plate, and the cell number was adjusted to about 5.0×10^5 cell/well. 4. The cells were collected after 1 to 10 hours, washed with medium, and cultured in the presence of a cell activation reagent (potent nanomolar activator of protein kinase C (PMA, 50 ng/mL), ionomycin (1 μM)) for 6 hours, thereby non-specifically stimulating T cells. At this time, BD Gorgi Stop™ was added to keep the produced cytokines inside the cells. 5. The cells were isolated and washed twice with a cell-staining buffer. First, staining of CD8, PD-1, Tim-3, which are molecules expressed on the T cell surface, was performed. In the staining, a staining buffer was added in an amount of 50 μL per sample. The culture was performed at 4° C. for 30 minutes. 6. The cells were collected and washed twice with a cell-staining buffer. 500 μL of BD Cytofix/Cytoperm was added and cultured at 4° C. for 30 minutes. 7. The cells were collected and washed twice with BD Perm/Wash™. Staining of cytokines IL-2, TNFα, and IFNγ was performed. In the staining, BD Perm/Wash™ was added in an amount of 50 μL per sample. The culture was performed at 4° C. for 30 minutes. 8. The cells were collected and washed twice with BD Perm/Wash™, and 200 μL of BD Perm/Wash™ was added. 9. Analysis was performed using a FACSCanto™ II flow cytometer (Becton, Dickinson and Company).
Among the PBMC treated with PMA/ionomycin in the method shown in (2) above, first, a gate was applied to CD8^+T cells using a FACSCanto™ II flow cytometer (Becton, Dickinson and Company), and then […] were removed by FSC-A and FSC-H. Using parameters FSC-A and SSC-A, a gate was applied to a lymphocyte group, thereby analyzing expression of PD-1 and Tim-3. Further, intracellular cytokines IFNγ, TNFα, and IL-2 were stained, and multifunctionality of CD8^+T cells contained in the PBMC was analyzed (FIG. 1).
Each PBMC obtained from 31 primary lung cancer patients (stage I) was cultured for an hour in the same manner as in (4) in the presence or absence of metformin. After metformin was removed, each resulting PBMC was analyzed. In a representative example, the CD8^+T cells untreated with metformin were determined to be 0.92%, and the CD8^+T cells treated with metformin were determined to be 1.44% (FIG. 3). Accordingly, it was judged that, in comparison with healthy subjects, multifunctionality of CD8^+T cells was increased by a metformin treatment in many cancer patients.
Among the cancer patients treated as above, the ratios of CD8^+T cells producing three kinds of cytokines (IFNγ/TNFα/IL-2), CD8^+T cells producing two kinds of cytokines (IFNγ/TNFα or IFNγ/IL-2), CD8^+T cells producing one kind of cytokine (IFNγ) with respect to the entire CD8^+T cells were calculated according to the same analysis as in (4), and shown in Table 2. The calculation results were compared between the metformin-untreated group (control) and the metformin-treated group (metformin).
This Example analyzed test results of recovery of multifunctionality of CD8^+T cells by metformin in 10 healthy subjects and 31 cancer patients (stage I) based on the results obtained by the method in Example 1. […]

[1] = total CD8^+T cells, cancer patients (stage I)

CN(C)C(=N)N=C(N)N [metformin]
Decrease, IFNγ 1-cytokine-producing cell (PD-1+, Tim-3+, patients/total): 10/31 | Decrease, IFNγ/IL-2 2-cytokine-producing cell (PD-1+, Tim-3+, patients/total): 8/31 | Decrease, IFNγ/TNFα 2-cytokine-producing cell (PD-1+, Tim-3+, patients/total): 9/31 | Decrease, IFNγ/TNFα/IL2 3-cytokine-producing cell (PD-1+, Tim-3+, patients/total): 7/31 | Increase, IFNγ 1-cytokine-producing cell (PD-1+, Tim-3+, patients/total): 19/31 | Increase, IFNγ/IL-2 2-cytokine-producing cell (PD-1+, Tim-3+, patients/total): 9/31 | Increase, IFNγ/TNFα 2-cytokine-producing cell (PD-1+, Tim-3+, patients/total): 11/31 | Increase, IFNγ/TNFα/IL2 3-cytokine-producing cell (PD-1+, Tim-3+, patients/total): 11/31 | No Change, IFNγ 1-cytokine-producing cell (PD-1+, Tim-3+, patients/total): 2/31 | No Change, IFNγ/IL-2 2-cytokine-producing cell (PD-1+, Tim-3+, patients/total): 14/31 | No Change, IFNγ/TNFα 2-cytokine-producing cell (PD-1+, Tim-3+, patients/total): 11/31 | No Change, IFNγ/TNFα/IL2 3-cytokine-producing cell (PD-1+, Tim-3+, patients/total): 13/31 | Decrease, IFNγ 1-cytokine-producing cell (PD-1+, Tim-3−, patients/total): 10/31 | Decrease, IFNγ/IL-2 2-cytokine-producing cell (PD-1+, Tim-3−, patients/total): 12/31 | Decrease, IFNγ/TNFα 2-cytokine-producing cell (PD-1+, Tim-3−, patients/total): 10/31 | Decrease, IFNγ/TNFα/IL2 3-cytokine-producing cell (PD-1+, Tim-3−, patients/total): 10/31 | Increase, IFNγ 1-cytokine-producing cell (PD-1+, Tim-3−, patients/total): 11/31 | Increase, IFNγ/IL-2 2-cytokine-producing cell (PD-1+, Tim-3−, patients/total): 12/31 | Increase, IFNγ/TNFα 2-cytokine-producing cell (PD-1+, Tim-3−, patients/total): 10/31 | Increase, IFNγ/TNFα/IL2 3-cytokine-producing cell (PD-1+, Tim-3−, patients/total): 14/31 | No Change, IFNγ 1-cytokine-producing cell (PD-1+, Tim-3−, patients/total): 10/31 | No Change, IFNγ/IL-2 2-cytokine-producing cell (PD-1+, Tim-3−, patients/total): 7/31 | No Change, IFNγ/TNFα 2-cytokine-producing cell (PD-1+, Tim-3−, patients/total): 11/31 | No Change, IFNγ/TNFα/IL2 3-cytokine-producing cell (PD-1+, Tim-3−, patients/total): 7/31 | Decrease, IFNγ 1-cytokine-producing cell (PD-1−, Tim-3+, patients/total): 14/31 | Decrease, IFNγ/IL-2 2-cytokine-producing cell (PD-1−, Tim-3+, patients/total): 9/31 | Decrease, IFNγ/TNFα 2-cytokine-producing cell (PD-1−, Tim-3+, patients/total): 8/31 | Decrease, IFNγ/TNFα/IL2 3-cytokine-producing cell (PD-1−, Tim-3+, patients/total): 6/31 | Increase, IFNγ 1-cytokine-producing cell (PD-1−, Tim-3+, patients/total): 10/31 | Increase, IFNγ/IL-2 2-cytokine-producing cell (PD-1−, Tim-3+, patients/total): 13/31 | Increase, IFNγ/TNFα 2-cytokine-producing cell (PD-1−, Tim-3+, patients/total): 13/31 | Increase, IFNγ/TNFα/IL2 3-cytokine-producing cell (PD-1−, Tim-3+, patients/total): 12/31 | No Change, IFNγ 1-cytokine-producing cell (PD-1−, Tim-3+, patients/total): 7/31 | No Change, IFNγ/IL-2 2-cytokine-producing cell (PD-1−, Tim-3+, patients/total): 9/31 | No Change, IFNγ/TNFα 2-cytokine-producing cell (PD-1−, Tim-3+, patients/total): 10/31 | No Change, IFNγ/TNFα/IL2 3-cytokine-producing cell (PD-1−, Tim-3+, patients/total): 13/31 | Decrease, IFNγ 1-cytokine-producing cell (PD-1−, Tim-3−, patients/total): 16/31 | Decrease, IFNγ/IL-2 2-cytokine-producing cell (PD-1−, Tim-3−, patients/total): 17/31 | Decrease, IFNγ/TNFα 2-cytokine-producing cell (PD-1−, Tim-3−, patients/total): 14/31 | Decrease, IFNγ/TNFα/IL2 3-cytokine-producing cell (PD-1−, Tim-3−, patients/total): 14/31 | Increase, IFNγ 1-cytokine-producing cell (PD-1−, Tim-3−, patients/total): 9/31 | Increase, IFNγ/IL-2 2-cytokine-producing cell (PD-1−, Tim-3−, patients/total): 12/31 | Increase, IFNγ/TNFα 2-cytokine-producing cell (PD-1−, Tim-3−, patients/total): 13/31 | Increase, IFNγ/TNFα/IL2 3-cytokine-producing cell (PD-1−, Tim-3−, patients/total): 13/31 | No Change, IFNγ 1-cytokine-producing cell (PD-1−, Tim-3−, patients/total): 6/31 | No Change, IFNγ/IL-2 2-cytokine-producing cell (PD-1−, Tim-3−, patients/total): 2/31 | No Change, IFNγ/TNFα 2-cytokine-producing cell (PD-1−, Tim-3−, patients/total): 4/31 | No Change, IFNγ/TNFα/IL2 3-cytokine-producing cell (PD-1−, Tim-3−, patients/total): 4/31 | Decrease, IFNγ 1-cytokine-producing cell (Total CD8T, patients/total): 13/31 | Decrease, IFNγ/IL-2 2-cytokine-producing cell (Total CD8T, patients/total): 15/31 | Decrease, IFNγ/TNFα 2-cytokine-producing cell (Total CD8T, patients/total): 12/31 | Decrease, IFNγ/TNFα/IL2 3-cytokine-producing cell (Total CD8T, patients/total): 12/31 | Increase, IFNγ 1-cytokine-producing cell (Total CD8T, patients/total): 5/31 | Increase, IFNγ/IL-2 2-cytokine-producing cell (Total CD8T, patients/total): 13/31 | Increase, IFNγ/TNFα 2-cytokine-producing cell (Total CD8T, patients/total): 15/31 | Increase, IFNγ/TNFα/IL2 3-cytokine-producing cell (Total CD8T, patients/total): 14/31 | No Change, IFNγ 1-cytokine-producing cell (Total CD8T, patients/total): 13/31 | No Change, IFNγ/IL-2 2-cytokine-producing cell (Total CD8T, patients/total): 3/31 | No Change, IFNγ/TNFα 2-cytokine-producing cell (Total CD8T, patients/total): 4/31 | No Change, IFNγ/TNFα/IL2 3-cytokine-producing cell (Total CD8T, patients/total): 5/31 | Increase + No Change, IFNγ/TNFα/IL2, share of patients (Total CD8T, Patients (stage I)): 61.3% | Increase + No Change, IFNγ/TNFα/IL2 (Total CD8T, Patients (stage I), patients/total): 19/31 | multifunctionality of CD8^+T cells by a metformin treatment (many cancer patients, in comparison with healthy subjects): increased | CD8^+T cells capable of simultaneously producing IFNγ, TNFα and IL-2, treated with metformin (primary lung cancer patients (stage I), representative example, FIG. 3, untreated with metformin 0.92%): 1.44% | decrease in multifunctionality (three kinds of cytokines), share of patients [1]: 38.7% | increase in multifunctionality (three kinds of cytokines), share of patients [1]: 45.2%
